In BindingDB's records for doi:10.1016/j.bioorg.2016.12.011 (University of Karachi, 2017):

target: T1, Beta-glucuronidase (Bos taurus, UniProt A3KMY8); assay: β-Glucuronidase Inhibition Assay
T1 sequence (A3KMY8 whole entry): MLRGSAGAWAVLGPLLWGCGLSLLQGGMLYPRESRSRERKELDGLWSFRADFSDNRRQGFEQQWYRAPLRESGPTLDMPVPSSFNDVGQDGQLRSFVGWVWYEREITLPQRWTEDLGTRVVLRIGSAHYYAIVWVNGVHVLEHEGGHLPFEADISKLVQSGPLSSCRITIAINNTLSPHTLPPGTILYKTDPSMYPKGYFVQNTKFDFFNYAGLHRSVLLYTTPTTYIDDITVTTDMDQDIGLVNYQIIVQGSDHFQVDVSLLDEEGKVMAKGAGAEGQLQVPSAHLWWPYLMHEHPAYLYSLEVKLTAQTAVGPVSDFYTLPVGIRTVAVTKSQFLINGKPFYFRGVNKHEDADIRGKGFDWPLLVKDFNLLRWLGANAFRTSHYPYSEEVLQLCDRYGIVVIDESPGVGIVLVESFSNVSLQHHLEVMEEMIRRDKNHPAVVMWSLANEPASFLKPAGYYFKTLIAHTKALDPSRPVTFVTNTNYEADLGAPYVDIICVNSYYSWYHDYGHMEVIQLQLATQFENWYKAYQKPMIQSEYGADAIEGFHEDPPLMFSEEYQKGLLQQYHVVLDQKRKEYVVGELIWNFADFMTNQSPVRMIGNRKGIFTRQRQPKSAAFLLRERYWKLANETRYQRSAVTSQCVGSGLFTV
Experimental: Total volume of reaction was 250 μL. […] Reaction mixture comprised of 0.1 M acetate buffer (185 μL), test compound solution in DMSO (5 μL), enzyme solution (10 μL), was incubated for 30 min at 37 °C. […] All assays were run in triplicate.

SMILES	IC50
Cc1ccc(-c2csc(N/N=C/c3ccc4ccc5cccc6ccc3c4c56)n2)cc1 [(E)-2-(2-(Pyren-1-ylmethylene)hydrazinyl)-4-(p-tolyl)thiazole (4)]	40.1 µM
Clc1ccc(-c2csc(C/C=C/c3ccc4ccc5cccc6ccc3c4c56)n2)cc1 [(E)-4-(4-Chlorophenyl)-2-(3-(pyren-1-yl)allyl)thiazole (10)]	11.1 µM
C(=N\Nc1nc(-c2ccc(-c3ccccc3)cc2)cs1)/c1ccc2ccc3cccc4ccc1c2c34 [(E)-4-([1,10-Biphenyl]-4-yl)-2-(2-(pyren-1-ylmethylene)hydrazinyl)thiazole (5)]	36.1 µM
COc1ccc(-c2csc(N/N=C/c3ccc4ccc5cccc6ccc3c4c56)n2)cc1 [(E)-4-(4-Methoxyphenyl)-2-(2-(pyren-1-ylmethylene)hydrazinyl)thiazole (3)]	24.4 µM
NC(=S)N/N=C/c1ccc2ccc3cccc4ccc1c2c34 [(E)-2-(Pyren-1-ylmethylene)hydrazine-1-carbothioamide (2)]	5.5 µM
